Data set [1] in a line: Human microsomal clearance assay. The format is in vitro ADME. The conditions noted are these: pH 7.4; for CLint scaled at 1 μM: human, liver microsomes; for half-life at 1 μM: human liver microsomes 0.5 mg/mL, 1 uM compound. The procedure:
This study aimed to assess the metabolic stability of a compound in human liver microsomes using a microsomal clearance assay.
A mixture containing 100 mM potassium phosphate, pH 7.4, 0.5 mg/mL liver microsomes, 2 mM NADPH, and 1 μM compound were prepared and added to 96-well plate. The plates were then incubated at 37 ? for different time points (0, 5, 15, 30, 45 minutes) and the reaction was stopped with acetonitrile solution containing an internal standard. The samples were then analyzed by LC/MS/MS to determine how much of the compound remained at each time point. The elimination rate constant and half-life were calculated from the data, and the in vitro intrinsic clearance (CLint) was determined as follows: […]

In another data set the test system is PBMC. The data set can be described thus: Human PBMC IL-2 assay. The data set is classed as cell-based. The conditions noted are these: anti-CD3/CD28 stimulation overnight, IL-2 level. In a few lines:
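Healthy-donor frozen PBMC were thawed, rested 4 h at 37 °C and plated at ~200,000 cells/well. Cells were preincubated 60 min at 37 °C with compound solution (10 uM to 0.6 nM, 8 points, 4-fold, as added), then stimulated overnight with anti-CD3/CD28. Supernatant IL-2 was quantified by immunoassay kit and plotted against log compound concentration.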

A further data set concerns Jurkat cells. The data set can be described thus: Jurkat IL-2 assay. The format is cell-based. The conditions noted are these: Homo sapiens, anti-CD3/CD28 stimulation overnight, IL-2 level. The method in brief:
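Cells in RPMI-1640 with 10% FBS received compound solution (5 uM to 2.3 nM, 8 points, 3-fold dilution) for 60 minutes at 37° C. They were then stimulated overnight at 37° C. with anti-CD3/CD28 antibody. IL-2 in the supernatant was quantified by immunoassay kit and plotted against log compound concentration.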

For data set [2], the system named is whole blood from male C57BL6 mice. Briefly: Mouse whole blood IFN-gamma assay. The format is cell-based. The conditions noted are these: anti-mouse CD3/CD28 0.6 ug/mL, 20 hours. The procedure: The whole blood from male C57BL6 mice (6-8 weeks old, Beijing Vital River Laboratory Animal Technology Co., Ltd.) was collected, pooled and dispensed at 200 uL per well in a 96-well plate. The blood was treated with compounds for one hour at 37° C. in a humidified 5% CO2 incubator. The blood was then stimulated with anti-mouse CD3 and anti-mouse CD28 antibody (BioLegend Cat #100340, #102116) at a final concentration of 0.6 ug/mL for 20 hours at 37° C. in a humidified 5% CO2 incubator. The blood was spun down, IFN-gamma in the supernatants was measured using ELISA kit (Excellbio Cat #EM002-96, #EM007-96) according the manufacture's instruction.

Data set [3] deals with T1, DGKa (Homo sapiens (Human), UniProt P23743).
Procedure: (§1) The DGKa and DGKz kinase assays were performed using Promega ADP-Glo kit (Promega, Cat #V9102). One microliter test compound was added to a 384-well plate. Reactions were performed in a 5 uL volume by adding 2 uL mixture of DGK enzyme and ATP in assay buffer (50 mM MOPS pH 7.5, 100 mM NaCl, 10 mM MgCl2, 1 mM CaCl2, 0.0025% BSA, and 1 mM DTT). […] The enzyme solution was incubated with test compound at 25 ? for 20 min. […] The reaction was initiated by the addition of 2 uL of substrate solution (7 uM 1.2-dioleoyl-sn-glycerol, 5 mM octyl-b-D-glucopyranoside) in the 5 uL assay volume. The resulting mixture was incubated at 25° C. for 40 minutes. Next, 5 uL of ADP-Glo-reagent was added to the plate and incubated for 40 minutes. Then 10 uL of kinase detection reagent was added and incubated for 30 minutes. Luminescence was recorded using an Tecan SPARK microplate reader. 1% DMSO vehicle was used as control and no enzyme well was used as blank well.
For another data set, the target named is DGKz (Homo sapiens (Human), UniProt Q13574). Briefly: DGK ADP-Glo kinase assay (DGKz). The data set is classed as biochemical. The conditions noted are these: 5 nM DGKz, 15 uM ATP. The procedure: Luminescence was recorded using an Tecan SPARK microplate reader.
Data set [4] addresses T1, DGKa. Briefly: biochemical.
Procedure: as §1
Data set [5] relates to MC-38 murine colon adenocarcinoma cells. The data set can be described thus: In vivo efficacy in MC38 syngeneic mouse tumor model. The conditions noted are these: MC38, C57BL/6 mice; compound 67 0.6 mg/kg PO QD in combination with anti-PD-1 2 mg/kg i.p. twice per week. The procedure: Murine colon adenocarcinoma cells MC-38 were obtained from American Type Culture Collection (ATCC) and cultured in RPMI 1640 media containing 10% fetal bovine serum (FBS) at 37° C. in a humidified 5% CO2 incubator. Female C57BL/6 mice (20 2 g, 6-8 weeks old) were purchased from SPF Biotechnology Co., Ltd. (Beijing, China). MC-38 cells were collected from flask and suspended in PBS. Suspension of 1×10^6 cells in 0.1 mL culture media without FBS was injected subcutaneously into animal armpits. Once the tumor reached 100-150 mm^3, the mice were randomized into different groups and treatment was initiated. Mice were treated orally once per day (PO, QD) with compound 67 (0.6 mg/kg) or vehicle control. Anti-PD-1 antibody (BioXcell, Cat #BE0273) was diluted with PBS for dosing at 2 mg/kg and was administrated via intraperitoneal injection, twice per week. Tumor volume and body weight of mice were recorded twice per week.
All animals were housed in a room maintained at 23±3° C., 65%-75% humidity, with a controlled 12 h light-dark cycle for 5-7 days before experiments. Water and commercial laboratory complete food for mice were provided in the cage.
Tumor volume was calculated by measuring two perpendicular diameters using the following formula: (L×W^2)/2, in which L and W refer to the length and width tumor diameter, respectively.

Molecules are shown by their SMILES. Read-outs that look alike come from different tables or passages of the source.

Chain of DGKz (Q13574 whole entry): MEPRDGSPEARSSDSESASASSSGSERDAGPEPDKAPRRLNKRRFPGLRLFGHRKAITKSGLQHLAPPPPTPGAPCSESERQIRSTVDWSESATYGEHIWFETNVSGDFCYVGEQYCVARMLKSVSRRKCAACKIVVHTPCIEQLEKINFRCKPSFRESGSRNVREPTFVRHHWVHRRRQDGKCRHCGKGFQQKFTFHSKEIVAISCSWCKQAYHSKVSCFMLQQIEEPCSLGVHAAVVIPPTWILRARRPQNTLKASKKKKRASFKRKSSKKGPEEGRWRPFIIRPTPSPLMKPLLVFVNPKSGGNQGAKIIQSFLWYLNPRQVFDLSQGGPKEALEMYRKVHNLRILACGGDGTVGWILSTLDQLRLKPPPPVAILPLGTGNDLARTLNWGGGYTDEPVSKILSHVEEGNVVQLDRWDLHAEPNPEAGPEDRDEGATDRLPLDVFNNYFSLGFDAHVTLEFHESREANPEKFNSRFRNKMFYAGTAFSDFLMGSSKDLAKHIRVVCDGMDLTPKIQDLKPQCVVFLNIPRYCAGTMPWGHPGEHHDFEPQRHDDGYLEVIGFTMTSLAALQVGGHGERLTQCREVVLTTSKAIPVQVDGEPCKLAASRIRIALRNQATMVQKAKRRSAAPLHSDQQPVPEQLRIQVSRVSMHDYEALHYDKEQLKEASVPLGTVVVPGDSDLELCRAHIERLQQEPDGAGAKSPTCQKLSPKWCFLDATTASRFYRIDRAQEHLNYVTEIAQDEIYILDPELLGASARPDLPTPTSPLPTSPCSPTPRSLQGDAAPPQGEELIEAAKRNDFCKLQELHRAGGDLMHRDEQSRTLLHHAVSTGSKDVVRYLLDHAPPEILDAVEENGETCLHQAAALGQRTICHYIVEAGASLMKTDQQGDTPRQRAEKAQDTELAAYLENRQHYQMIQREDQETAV
T1 sequence (P23743 whole entry): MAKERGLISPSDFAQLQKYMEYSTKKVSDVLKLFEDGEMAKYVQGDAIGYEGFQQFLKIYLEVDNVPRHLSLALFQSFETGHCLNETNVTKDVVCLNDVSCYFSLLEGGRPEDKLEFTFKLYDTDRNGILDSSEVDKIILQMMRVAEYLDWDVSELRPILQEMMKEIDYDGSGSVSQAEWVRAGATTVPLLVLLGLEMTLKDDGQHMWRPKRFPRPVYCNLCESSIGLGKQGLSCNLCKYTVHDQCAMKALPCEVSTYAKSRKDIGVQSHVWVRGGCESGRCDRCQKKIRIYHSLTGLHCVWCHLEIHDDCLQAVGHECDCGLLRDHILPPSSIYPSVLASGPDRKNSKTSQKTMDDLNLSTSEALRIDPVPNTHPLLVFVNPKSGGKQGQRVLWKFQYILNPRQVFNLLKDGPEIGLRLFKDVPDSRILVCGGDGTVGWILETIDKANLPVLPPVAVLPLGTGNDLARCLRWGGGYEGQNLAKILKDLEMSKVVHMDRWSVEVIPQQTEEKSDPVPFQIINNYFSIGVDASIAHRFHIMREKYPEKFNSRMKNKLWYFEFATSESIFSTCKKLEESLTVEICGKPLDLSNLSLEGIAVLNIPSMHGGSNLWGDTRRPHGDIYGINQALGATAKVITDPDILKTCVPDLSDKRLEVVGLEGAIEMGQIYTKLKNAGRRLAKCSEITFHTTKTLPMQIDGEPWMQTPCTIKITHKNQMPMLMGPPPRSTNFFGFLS

In data set [1], `CC[C@@H]1CN2c3c(c(=O)n(C)c4ccc(C#N)nc34)OC[C@@H]2CN1[C@@H](CC)c1ccc(S(F)(F)(F)(F)F)cc1` (stereo in doubt) [Compound 151] came in with an intrinsic metabolic clearance (CLint scaled) at 1 μM of 4.1 mL/min/kg. The compound further yielded a half-life at 1 μM in data set [1] of 7.13 h. The EC50 is 82 nM in the data set on PBMC and 32 nM in the data set on Jurkat cells.
With `CC[C@@H]1CN2c3c(c(=O)n(C)c4ccc(C#N)nc34)OC[C@@H]2CN1[C@@H](CC)c1ccc(F)c(Cl)c1` (stereo in doubt) [Compound 197], the results for the half-maximal effective concentration (EC50) (in data set [2]; with PBMC; in the data set on Jurkat cells) were 312 nM, 78 nM and 39 nM, respectively.
Consider `C[C@@H]1CN2c3c(c(=O)n(C)c4ccc(C#N)nc34)OC[C@@H]2CN1[C@@H](C)c1ccc(C(F)(F)F)cc1` (stereo in doubt) [Compound 223], for which the EC50 amounted to 679 nM in data set [2], 47 nM in the data set on PBMC and 70 nM in the data set with Jurkat cells. The intrinsic clearance (CLint scaled) at 1 μM in data set [1] turned out to be 18.3 mL/min/kg. Also, in data set [1], the half-life at 1 μM is 1.58 h.
Take `CC[C@@H]1CN2c3c(c(=O)n(C)c4ccc(C#N)nc34)OC[C@@H]2CN1[C@@H](CC)c1ccc(C(F)(F)F)c(Cl)c1` (stereo in doubt) [Compound 246]: the values for the concentration for a half-maximal effect (EC50) (in data set [2]; with PBMC; in the data set with Jurkat cells) were 265 nM, 23 nM and 30 nM, respectively. The same compound came in with an intrinsic clearance (CLint scaled) at 1 μM in data set [1] of 1.1 mL/min/kg. Further, the half-life at 1 μM in data set [1] was found to be 25.7 h.
In data set [1], `[2H]C([2H])([2H])n1c(=O)c2c(c3nc(C#N)ccc31)N1C[C@@H](CC)N([C@@H](CC)c3ccc(C(F)(F)F)cc3)C[C@H]1CO2` (stereo in doubt) [Compound 251] registered an intrinsic clearance (CLint scaled) at 1 μM of 8.6 mL/min/kg and a half-life at 1 μM of 3.38 h. In the data set on PBMC, the EC50 was 50 nM. This compound also yielded a 50% effective concentration (EC50) in the data set on Jurkat cells of 51 nM.
As to `CC[C@@H](c1ccc(Cl)c(Cl)c1)N1C[C@H]2COc3c(c4nc(C#N)ccc4n(C)c3=O)N2C[C@H]1C` (stereo in doubt) [Compound 322], the concentration for a half-maximal effect (EC50) in data set [2] amounted to 281 nM; in the data set with PBMC, 25 nM; with Jurkat cells it was 12 nM. In data set [1], the CLint scaled at 1 μM was 12.4 mL/min/kg. Besides, the half-life at 1 μM in data set [1] is 2.35 h.
As to `Cn1c(=O)nc(N2CCC(Oc3ccc(OC(F)(F)F)cc3)CC2)c2nc(C#N)ccc21` [Compound 5], the EC50 with PBMC amounted to 728 nM. Also, the half-inhibitory concentration (IC50) against DGKa [3] was 427 nM; against DGKz it was 126 nM.
In the case of `Cn1c(=O)c(C(N)=O)c(N2CCC3(CCN(c4ccc(OC(F)(F)F)cc4)C3)CC2)c2nc(C#N)ccc21` [Compound 6], the concentration for a half-maximal effect (EC50) in the data set with PBMC was found to be 1800 nM. Moreover, the IC50 at DGKa [3] was found to be 212 nM; on DGKz it was 775 nM.
In data set [1], `CC[C@H]1CN([C@@H](CC)c2ccc(S(F)(F)(F)(F)F)cc2)[C@H](CC)CN1c1nc(=O)n(C)c2ccc(C#N)nc12` [Compound 28] gave a CLint scaled at 1 μM of 7.7 mL/min/kg and a half-life at 1 μM of 3.75 h. Moreover, the half-maximal inhibitory concentration (IC50) on DGKa [4] was found to be 12 nM. The compound also gave a 50% inhibitory concentration (IC50) at DGKz of 50 nM.
Take `Cn1c(=O)nc(N2CCC3(CC2)CC(c2ccc(OC(F)(F)F)cc2)=NO3)c2nc(C#N)ccc21` [Compound 31]: in data set [1], the CLint scaled at 1 μM worked out at 5.1 mL/min/kg and the half-life at 1 μM turned out to be 5.7 h. Moreover, the IC50 at DGKa [3] was 20 nM. The compound further showed a 50% inhibitory concentration (IC50) at DGKz of 24 nM.
`CC[C@H]1CN([C@@H](CC)c2ccc(C(F)(F)F)cc2)[C@H](CC)CN1c1nc2nncn2c2ccc(C#N)nc12` [Compound 34]: the EC50 came to 335 nM in data set [2], 44 nM in the data set on PBMC and 67 nM with Jurkat cells. The 50% inhibitory concentration (IC50) against DGKa [3] amounted to 16 nM; against DGKz, 42 nM.
In data set [1], `Cn1c(=O)nc(N2CCC3(CC2)COC(c2ccc(OC(F)(F)F)cc2)=N3)c2nc(C#N)ccc21` [Compound 36] gave a CLint scaled at 1 μM of 2.7 mL/min/kg and a half-life at 1 μM of 10.9 h.
As for `CC[C@@H]1CN2c3c(c(=O)n(C)c4ccc(C#N)nc34)OC[C@@H]2CN1[C@@H](CC)c1ccc(C(F)(F)F)cc1` [Compound 67], the Tumor inhibition activity entry in data set [5] is recorded as “significantly better tumor inhibition activity than either of the single agents”. For the same compound, the EC50 in data set [2] amounted to 102 nM; in the data set with PBMC it was 40 nM; with Jurkat cells it was 49 nM. In addition, the intrinsic metabolic clearance (CLint scaled) at 1 μM in data set [1] was found to be 7.5 mL/min/kg. In addition, the half-life at 1 μM in data set [1] came out at 3.88 h. For the same compound, the 50% inhibitory concentration (IC50) against DGKa [4] was determined as 4 nM; at DGKz, 16 nM.
Regarding `CC[C@@H]1CN2c3c(c(=O)n(C)c4ccc(C#N)nc34)OC[C@H]2CN1[C@@H](CC)c1ccc(C(F)(F)F)cc1` [Compound 107], the figures for the IC50 against DGKa [3] and against DGKz were 9 nM and 136 nM, respectively.
For `CC[C@@H]1CN2c3c(c(=O)n(C)c4ccc(C#N)nc34)OC[C@H]2CN1[C@H](CC)c1ccc(C(F)(F)F)cc1` [Compound 108] the same measures were 26 nM and 242 nM.
Turning to `CC[C@H]1CN([C@@H](CC)c2ccc(C(F)(F)F)cc2)[C@H](CC)CN1c1nc2nccn2c2ccc(C#N)nc12` [Compound 109], the half-inhibitory concentration (IC50) was found to be 6 nM on DGKa [3] and 71 nM at DGKz.
On to `CC[C@H]1CN([C@H](CC)c2ccc(C(F)(F)F)cc2)[C@H](CC)CN1c1nc2nccn2c2ccc(C#N)nc12` [Compound 110], for which the results for the IC50 against DGKa [3] and at DGKz were 6 nM and 117 nM, respectively.
For `CC[C@H]1CN([C@H]2CCCCc3cc(C(F)(F)F)ccc32)[C@H](CC)CN1c1nc2nncn2c2ccc(C#N)nc12` [Compound 113], the IC50 at DGKa [3] was 44 nM; on DGKz, 161 nM.
For the compound `CC[C@H]1CN([C@@H]2CCCCc3cc(C(F)(F)F)ccc32)[C@H](CC)CN1c1nc2nncn2c2ccc(C#N)nc12` [Compound 114], the values for the IC50 against DGKa [3] and at DGKz were 30 nM and 4 nM, respectively.
Regarding `CC[C@H]1CN([C@@H](CC)c2nc(C3CC3)no2)[C@H](CC)CN1c1nc2nncn2c2ccc(C#N)nc12` [Compound 119], the IC50 on DGKa [3] was 3 nM; on DGKz, 21 nM.
As for `CC[C@H]1CN([C@H](CC)c2nc(C3CC3)no2)[C@H](CC)CN1c1nc2nncn2c2ccc(C#N)nc12` [Compound 120], the results for the half-maximal inhibitory concentration (IC50) against DGKa [3] and against DGKz were 10 nM and 352 nM, respectively.
`CC[C@@H]1CN2c3c(c(=O)n(C)c4ccc(C#N)nc34)CC[C@@H]2CN1[C@H](CC)c1ccc(C(F)(F)F)cc1` [Compound 332]: the intrinsic metabolic clearance (CLint scaled) at 1 μM in data set [1] came out at 6.9 mL/min/kg. In data set [1], the half-life at 1 μM is 4.23 h. For the same compound, the 50% effective concentration (EC50) came out at 64 nM in the data set on PBMC and 130 nM in the data set with Jurkat cells.
In the case of `CC[C@@H]1CN2c3c(c4nncn4c4ccc(C#N)nc34)OC[C@@H]2CN1[C@@H](CC)c1ccc(C(F)(F)F)cc1` [Compound 334], the half-maximal effective concentration (EC50) in data set [2] was found to be 241 nM; in the data set on PBMC it was 31 nM; with Jurkat cells it was 26 nM.

The values are drawn from patent US20250223301A1, “KINASE INHIBITORS, PREPARATION METHODS AND USES THEREOF” (InventisBio Co., Ltd., priority 2022, published 2025).
